Test results published in ChEMBL document CHEMBL4190219, “Detection of a Toxic Methylated Derivative of Phomopsin A Produced by the Legume-Infesting Fungus Diaporthe toxica” (J Nat Prod, 2017).

What was measured:
[1] = Cytotoxicity against human HepG2 cells assessed as cell viability at 0.1 uM after 72 hrs by WST1 assay (reference value: 100%); type: cell-based; conditions: read-out: Activity
[2] = Cytotoxicity against human HepG2 cells assessed as cell viability at 0.4 uM after 72 hrs by WST1 assay (reference value: 100%); type: cell-based; conditions: read-out: Activity
[3] = Cytotoxicity against human HepG2 cells assessed as cell viability at 1.3 uM after 72 hrs by WST1 assay (reference value: 100%); type: cell-based; conditions: read-out: Activity
[4] = Cytotoxicity against human HepG2 cells assessed as cell viability at 2.5 uM after 72 hrs by WST1 assay (reference value: 100%); type: cell-based; conditions: read-out: Activity
[5] = Cytotoxicity against human HepG2 cells assessed as cell viability at 5.1 uM after 72 hrs by WST1 assay (reference value: 100%); type: cell-based; conditions: read-out: Activity
[6] = Cytotoxicity against human HepG2 cells assessed as cell viability at 10.1 uM after 72 hrs by WST1 assay (reference value: 100%); type: cell-based; conditions: read-out: Activity
[7] = system: HepG2; assay: Cytotoxicity against human HepG2 cells assessed as cell vitality at 0.1 uM after 72 hrs by trypan blue staining based assay (reference value: 1.1 +/- 0.5%); conditions: hepg2, 72 h
[8] = system: HepG2; assay: Cytotoxicity against human HepG2 cells assessed as cell vitality at 0.4 uM after 72 hrs by trypan blue staining based assay (reference value: 1.1 +/- 0.5%); conditions: hepg2, 72 h
[9] = system: HepG2; assay: Cytotoxicity against human HepG2 cells assessed as cell vitality at 1.3 uM after 72 hrs by trypan blue staining based assay (reference value: 1.1 +/- 0.5%); conditions: hepg2, 72 h
[10] = system: HepG2; assay: Cytotoxicity against human HepG2 cells assessed as cell vitality at 2.5 uM after 72 hrs by trypan blue staining based assay (reference value: 1.1 +/- 0.5%); conditions: hepg2, 72 h
[11] = Cytotoxicity against human HepG2 cells assessed as cell vitality at 5.1 uM after 72 hrs by trypan blue staining based assay (reference value: 1.1 +/- 0.5%); conditions: read-out: Activity
[12] = Cytotoxicity against human HepG2 cells assessed as cell vitality at 10.1 uM after 72 hrs by trypan blue staining based assay (reference value: 1.1 +/- 0.5%); conditions: read-out: Activity
[13] = system: HepG2; assay: Cytotoxicity against human HepG2 cells assessed as cell viability after 72 hrs by WST1 assay; type: cell-based; conditions: for IC50: Homo sapiens, HepG2, 72 h; for Activity: human, hepg2, 72 h
[14] = system: HepG2; assay: Cytotoxicity against human HepG2 cells assessed as cell vitality after 72 hrs by trypan blue staining based assay; conditions: hepg2, 72 h

Row | Compound | viability at 72 h, 0.1 µM [1] [%] | viability at 72 h, 0.4 µM [2] [%] | viability at 72 h, 1.3 µM [3] [%] | viability at 72 h, 2.5 µM [4] [%] | viability at 72 h, 5.1 µM [5] [%] | viability at 72 h, 10.1 µM [6] [%] | Activity [7] [%] | Activity [8] [%] | Activity [9] [%] | Activity [10] [%] | viability at 72 h, 5.1 µM [11] [%] | viability at 72 h, 10.1 µM [12] [%] | IC50 [13] [µM] | Activity [13] | Activity [14]
1 | C=C(C)[C@@H]1NC(=O)[C@H](N(C)C)[C@H](O)c2cc(Cl)c(O)c(c2)O[C@](C)(CC)[C@@H](C(=O)N2CC=C[C@H]2C(=O)N/C(C(=O)N/C(=C/C(=O)O)C(=O)O)=C(\C)CC)NC1=O | 105 | 101 | 85 | 61 | 46 | 37 | 0.9 | 0.9 | 4.7 | 7.7 | 18.4 | 29.8 | 6.1 | Dose-dependent effect | Dose-dependent effect
2 | C=C(C)[C@@H]1NC(=O)[C@H](NC)[C@H](O)c2cc(Cl)c(O)c(c2)O[C@](C)(CC)[C@@H](C(=O)N2CC=C[C@H]2C(=O)N/C(C(=O)N/C(=C/C(=O)O)C(=O)O)=C(\C)CC)NC1=O | 106 | 105 | 99 | 83 | 57 | 48 | 0.5 | 1.1 | 1.6 | 4.3 | 9 | 17 | 8.1 | Dose-dependent effect | Dose-dependent effect
